The source made the active and inactive calls.
How the values were obtained:
Leucine aminopeptidase = molecular target: T1, Leucine aminopeptidase (Plasmodium falciparum 3D7, UniProt Q8IL11); test: P. falciparum M17LAP inhibitors, primary screen, biochemical, fluorogenic H-Leu-NHMec substrate, 1536-well (AID 1619); type: functional
T1 sequence (Q8IL11 whole entry): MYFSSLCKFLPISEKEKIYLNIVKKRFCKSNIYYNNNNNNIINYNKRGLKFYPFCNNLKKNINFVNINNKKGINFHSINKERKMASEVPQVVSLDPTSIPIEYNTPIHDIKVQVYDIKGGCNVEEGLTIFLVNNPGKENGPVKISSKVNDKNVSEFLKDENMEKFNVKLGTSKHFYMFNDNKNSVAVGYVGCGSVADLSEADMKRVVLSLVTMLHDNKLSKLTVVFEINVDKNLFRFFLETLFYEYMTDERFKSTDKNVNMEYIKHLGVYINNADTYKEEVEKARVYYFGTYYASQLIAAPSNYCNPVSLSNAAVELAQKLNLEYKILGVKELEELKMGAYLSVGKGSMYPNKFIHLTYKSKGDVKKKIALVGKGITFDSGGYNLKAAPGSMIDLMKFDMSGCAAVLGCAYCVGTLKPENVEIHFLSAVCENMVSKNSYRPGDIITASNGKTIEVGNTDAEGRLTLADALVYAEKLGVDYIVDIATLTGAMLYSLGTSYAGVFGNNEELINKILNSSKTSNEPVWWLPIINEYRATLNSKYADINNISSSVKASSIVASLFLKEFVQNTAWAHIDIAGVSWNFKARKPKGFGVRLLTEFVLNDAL

cells [1] = type: functional, cell-based
cells [2] = type: functional, cell-based; remark: listed apart in the source
HEK293 = test: inhibitors of LMP1-driven NF-kB reporter, dose response, cell-based, HEK293, luciferase, cherry-pick (AID 588343); type: functional; details: Homo sapiens
[3] = growth suppression of PTEN-null colon cells, dose response, cell-based, HCT116 PTEN knockout (AID 1047); type: functional;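 further: HCT116 colon tumor cells with PTEN knocked out; cells exposed to compound for 60 hours before readout; potency for loss of cell viability measured by luminescence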
[4] = growth suppression of beta-catenin-knockout colon cells, dose response, cell-based, HCT116, human colon tumor (AID 1045); type: functional;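 further: HCT116 colon tumor cells with beta catenin knocked out; cells exposed to compound for 60 hours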
[5] = microbe, parasite or virus in culture; type: functional; details: Mycobacterium tuberculosis
[6] = Luminescence Cell-Based Dose Retest to Confirm Inhibitors of Cancer Stem Cells. [Related pubchem assays (depositor defined):AID2717, AID2721]; type: functional; details: Homo sapiens
Cytochrome P450 2C9 = Cytochrome P450 2C9 (Homo sapiens, UniProt P11712)
Chain of Cytochrome P450 2C9 (P11712 whole entry): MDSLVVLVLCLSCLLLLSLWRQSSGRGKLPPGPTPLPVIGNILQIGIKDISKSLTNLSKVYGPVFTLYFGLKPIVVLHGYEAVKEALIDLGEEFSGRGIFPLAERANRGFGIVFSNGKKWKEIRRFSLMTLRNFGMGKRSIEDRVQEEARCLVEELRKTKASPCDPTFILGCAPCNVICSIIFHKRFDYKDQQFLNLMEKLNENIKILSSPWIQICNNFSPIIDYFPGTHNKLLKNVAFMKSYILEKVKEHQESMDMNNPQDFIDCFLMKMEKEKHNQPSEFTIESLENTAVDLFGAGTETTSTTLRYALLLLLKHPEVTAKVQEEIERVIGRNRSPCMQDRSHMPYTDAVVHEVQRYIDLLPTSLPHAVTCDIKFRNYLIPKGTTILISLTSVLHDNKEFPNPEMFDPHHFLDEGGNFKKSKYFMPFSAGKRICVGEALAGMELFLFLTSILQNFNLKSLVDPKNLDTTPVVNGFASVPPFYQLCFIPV

[7] = molecular target: T2, Heat shock factor protein 1 (Mus musculus, UniProt P38532); test: inhibition of MG132-induced HSE-luciferase signal, confirmation, cell-based, NIH3T3, luminescence, dose retest (AID 2382); type: functional;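 further: NIH3T3 fibroblasts with HSF1-driven luciferase reporter stressed by proteasome inhibitor MG132; luminescence from HSF1-driven luciferase expression after 8 hours of MG132 stress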
T2 sequence (P38532 whole entry): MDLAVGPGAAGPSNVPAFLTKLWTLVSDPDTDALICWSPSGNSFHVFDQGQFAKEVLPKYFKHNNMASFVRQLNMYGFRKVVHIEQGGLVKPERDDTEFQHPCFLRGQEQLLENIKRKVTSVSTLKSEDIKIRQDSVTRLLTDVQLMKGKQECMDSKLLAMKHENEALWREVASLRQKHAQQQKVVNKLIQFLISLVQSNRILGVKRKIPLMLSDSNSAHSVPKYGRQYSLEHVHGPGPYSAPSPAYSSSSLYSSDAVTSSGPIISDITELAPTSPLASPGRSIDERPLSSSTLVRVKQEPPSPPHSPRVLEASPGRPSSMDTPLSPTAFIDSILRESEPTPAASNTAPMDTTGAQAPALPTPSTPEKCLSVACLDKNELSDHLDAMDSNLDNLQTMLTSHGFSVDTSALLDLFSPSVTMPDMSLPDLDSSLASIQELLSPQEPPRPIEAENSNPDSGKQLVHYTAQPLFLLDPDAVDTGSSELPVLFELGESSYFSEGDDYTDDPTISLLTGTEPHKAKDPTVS

Cytochrome P450 2D6 = Cytochrome P450 2D6 (Homo sapiens, UniProt P10635);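 further: CYP2D6 member of a cytochrome P450 panel assay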
Chain of Cytochrome P450 2D6 (P10635 whole entry): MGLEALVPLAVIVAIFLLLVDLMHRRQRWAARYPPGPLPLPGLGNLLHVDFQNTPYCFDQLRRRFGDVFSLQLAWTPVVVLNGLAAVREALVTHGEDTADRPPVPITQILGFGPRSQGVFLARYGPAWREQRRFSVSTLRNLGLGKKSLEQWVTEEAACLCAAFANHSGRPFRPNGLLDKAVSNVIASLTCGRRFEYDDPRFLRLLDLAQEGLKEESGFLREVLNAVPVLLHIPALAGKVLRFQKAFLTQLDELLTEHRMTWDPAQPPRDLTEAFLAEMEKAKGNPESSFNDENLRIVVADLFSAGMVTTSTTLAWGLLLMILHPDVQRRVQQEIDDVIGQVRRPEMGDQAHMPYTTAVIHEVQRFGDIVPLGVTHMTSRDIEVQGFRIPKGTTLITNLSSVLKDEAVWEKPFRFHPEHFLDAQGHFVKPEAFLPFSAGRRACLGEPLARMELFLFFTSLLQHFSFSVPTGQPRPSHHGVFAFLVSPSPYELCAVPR

Aminopeptidase N = molecular target: T3, Aminopeptidase N (Plasmodium falciparum FcB1/Columbia, UniProt O96935); test: P. falciparum M1AAP inhibitors, biochemical, fluorogenic H-Leu-NHMec substrate, 1536-well (AID 1445); set-up: species or system Plasmodium falciparum 3D7, 3D7
T3 sequence (O96935 whole entry): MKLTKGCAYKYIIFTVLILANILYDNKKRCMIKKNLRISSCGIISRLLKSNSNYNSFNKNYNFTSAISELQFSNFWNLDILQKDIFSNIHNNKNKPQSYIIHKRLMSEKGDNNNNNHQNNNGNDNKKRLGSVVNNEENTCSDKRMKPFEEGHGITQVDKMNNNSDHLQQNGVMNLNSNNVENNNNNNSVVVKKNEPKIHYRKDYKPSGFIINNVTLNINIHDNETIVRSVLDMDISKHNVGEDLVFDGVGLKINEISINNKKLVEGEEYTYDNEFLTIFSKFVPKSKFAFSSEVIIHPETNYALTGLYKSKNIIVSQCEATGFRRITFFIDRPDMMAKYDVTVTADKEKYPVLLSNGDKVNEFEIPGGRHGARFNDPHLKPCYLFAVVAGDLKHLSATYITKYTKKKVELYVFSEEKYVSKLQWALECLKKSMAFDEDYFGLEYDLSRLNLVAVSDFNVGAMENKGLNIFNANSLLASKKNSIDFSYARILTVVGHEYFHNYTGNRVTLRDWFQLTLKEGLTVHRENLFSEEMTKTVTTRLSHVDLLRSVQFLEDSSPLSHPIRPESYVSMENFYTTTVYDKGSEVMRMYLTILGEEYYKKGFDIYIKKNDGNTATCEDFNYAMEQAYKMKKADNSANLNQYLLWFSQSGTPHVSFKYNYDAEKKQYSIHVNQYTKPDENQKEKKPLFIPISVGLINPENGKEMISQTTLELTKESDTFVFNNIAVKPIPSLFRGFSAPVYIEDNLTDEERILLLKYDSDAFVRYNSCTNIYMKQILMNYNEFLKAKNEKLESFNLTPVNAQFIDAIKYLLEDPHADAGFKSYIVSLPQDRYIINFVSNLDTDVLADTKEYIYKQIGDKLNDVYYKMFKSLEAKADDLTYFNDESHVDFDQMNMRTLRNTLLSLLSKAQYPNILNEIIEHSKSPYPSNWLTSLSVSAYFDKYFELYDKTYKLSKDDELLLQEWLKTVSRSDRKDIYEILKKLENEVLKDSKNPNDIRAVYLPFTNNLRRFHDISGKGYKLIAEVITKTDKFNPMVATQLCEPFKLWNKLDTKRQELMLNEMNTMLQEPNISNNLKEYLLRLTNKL

[8] = inhibitors of clade B AD8 Env fusion, dose response, cell-based, cherry-pick (AID 652062); type: functional;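 further: luciferase signal from cell-cell fusion driven by HIV-1 clade B AD8 Env; potency is for inhibitors of fusion seen as a drop in luminescence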
[9] = NIH-3T3 fibroblast cytotoxicity, dose response, cytotoxicity control, cell-based, fluorescence, Alamar Blue, secondary assay (AID 2327); type: functional;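 further: NIH-3T3 mouse fibroblasts cultured with fluconazole at 8 µg/mL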
[10] = HEp-2 cell cytotoxicity, dose response, cytotoxicity control for RSV inhibitor project, HTS (AID 2410); type: functional; details: human respiratory syncytial virus
Vero = test: cells; type: functional; details: Chlorocebus sabaeus
[11] = molecular target: Heat shock protein HSP 90-alpha (Homo sapiens, UniProt P07900); type: functional, organism-based
[12] = C. albicans growth with fluconazole, confirmation, fluorescence, retest (AID 2467); type: functional, cell-based
Nonstructural protein 1 = Nonstructural protein 1 (Influenza A virus, UniProt Q194T2); type: functional, Influenza A virus (A/California/07/2009(H1N1))
Chain of Nonstructural protein 1 (Q194T2 whole entry): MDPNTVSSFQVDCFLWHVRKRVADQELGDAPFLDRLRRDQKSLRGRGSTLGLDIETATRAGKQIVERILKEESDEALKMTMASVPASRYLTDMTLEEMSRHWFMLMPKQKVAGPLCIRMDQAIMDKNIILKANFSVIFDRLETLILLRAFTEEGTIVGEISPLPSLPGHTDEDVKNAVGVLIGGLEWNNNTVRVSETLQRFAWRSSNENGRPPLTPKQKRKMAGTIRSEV

[13] = molecular target: T4, Rac GTPase-activating protein 1 (Homo sapiens, UniProt Q9H0H5); test: MgcRacGAP GTPase-activating activity inhibitors, confirmation, biochemical, ADP Hunter fluorescence, primary and confirmatory (AID 624330); type: functional
T4 sequence (Q9H0H5 whole entry): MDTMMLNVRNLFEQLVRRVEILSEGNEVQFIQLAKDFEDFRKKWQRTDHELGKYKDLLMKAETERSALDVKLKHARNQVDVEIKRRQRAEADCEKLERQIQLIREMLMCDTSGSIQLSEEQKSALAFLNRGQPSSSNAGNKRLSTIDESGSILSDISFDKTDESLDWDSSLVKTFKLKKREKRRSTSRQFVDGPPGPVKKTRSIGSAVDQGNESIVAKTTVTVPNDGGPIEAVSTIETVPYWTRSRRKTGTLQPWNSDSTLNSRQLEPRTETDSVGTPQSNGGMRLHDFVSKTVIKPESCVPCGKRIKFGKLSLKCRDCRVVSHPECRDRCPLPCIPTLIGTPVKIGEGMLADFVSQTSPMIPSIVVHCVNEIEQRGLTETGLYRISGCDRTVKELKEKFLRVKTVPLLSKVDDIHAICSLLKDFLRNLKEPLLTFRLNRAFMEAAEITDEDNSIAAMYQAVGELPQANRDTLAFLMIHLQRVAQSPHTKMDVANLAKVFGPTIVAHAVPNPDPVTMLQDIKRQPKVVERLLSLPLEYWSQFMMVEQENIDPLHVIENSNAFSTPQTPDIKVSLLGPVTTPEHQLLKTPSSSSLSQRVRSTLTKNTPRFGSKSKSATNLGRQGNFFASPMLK

O=C(O)c1ccc(N/N=C/c2ccc(C(F)(F)F)cc2)cc1
IC50 (Leucine aminopeptidase): 46.3 µM (active)

Cc1ccc(CNC(=O)NC2CCCCC2)cc1
EC50 (cells [1]): > 350 µM (not active) | EC50 (cells [2]): 55 µM (active)

CNS(=O)(=O)c1cccc(C(=O)OCC(=O)c2ccc3c(c2)OCCO3)c1
AC50 (HEK293): 8.57 µM (active)

N#Cc1ncc(N=Cc2ccc(N(CCCl)CCCl)cc2)s1
AC50 (HEK293): 1.22 µM (active)

C=CCn1cccc(/C=C/C(=O)c2ccc(C(C)(C)C)cc2)c1=S
EC50 [3]: 4.04 µM (active) | EC50 [4]: 2.56 µM (active) | CC50 [5]: 10.3 µM (active) | AC50 [6]: 5.64 µM (active)

Cc1ccc(C(=O)N/N=C/c2sc(=O)n(Cc3cccc(C(=O)O)c3)c2Cl)cc1
AC50 (Cytochrome P450 2C9): 12.6 µM (inconclusive) | IC50 (Leucine aminopeptidase): 17.8 µM (active)

CCCCOc1ccc(CC(=O)NO)cc1 [BUFEXAMAC]
EC50 [7]: > 195 µM (not active) | AC50 (Cytochrome P450 2D6): 10 µM (inconclusive) | IC50 (Leucine aminopeptidase): < 1 µM (active) | IC50 (Aminopeptidase N): 81.2 µM (active)

Cc1onc(-c2ccccc2)c1C(=O)Nc1ccc(Br)cc1Cl
AC50 [8]: 3.43 µM (active)

CCC(=O)NC(=S)Nc1ccc(NC(=O)COc2ccc(Cl)cc2Cl)cc1
CC50 [5]: 39.6 µM (active)

COc1ccc2ccccc2c1/C=N/Nc1cccc(C(=O)O)c1
EC50 (cells [1]): > 350 µM (not active) | EC50 (cells [2]): 16.8 µM (active)

CCOc1ccc(-c2c(C(=O)N/N=C/c3cccnc3)nnn2-c2nonc2N)cc1
EC50 (cells [1]): > 350 µM (not active) | EC50 (cells [2]): > 350 µM (not active)

O=C(N/N=C/c1ccccn1)c1cc(-c2ccc(Cl)cc2)nc2ccccc12
EC50 [9]: 20.6 µM (active) | CC50 [10]: 11.8 µM (active) | CC50 (Vero): 14.2 µM (active) | AC50 [11]: 7.9 µM (active) | EC50 [12]: 1.06 µM (active)

O=C(CSc1nnc(NC(=O)c2c(F)cccc2F)s1)Nc1ccc(F)cc1
IC50 (Leucine aminopeptidase): 32.3 µM (active)

CSc1ccc(N/N=C(/C#N)S(=O)(=O)C(C)(C)C)cc1
IC50 (Leucine aminopeptidase): 30.6 µM (active)

CC(c1ccccc1)N1CCN(C(=O)CCl)CC1 (stereo not drawn)
EC50 [7]: 43.8 µM (active) | CC50 (Vero): 9.03 µM (active) | CC50 [5]: 17.9 µM (active)

O=C(CNCc1ccccn1)N1CCc2ccccc2C1
IC50 (Nonstructural protein 1): 3.54 µM (active) | IC50 [13]: 177 µM (active)
